Test results published in ChEMBL document CHEMBL5104232, “Pyrazolines as potential anti-Alzheimer's agents: DFT, molecular docking, enzyme inhibition and pharmacokinetic studies” (RSC Med Chem, 2022).
pIC50: −log10 of the molar value.

Tests used:
[1] = target: Acetylcholinesterase (Homo sapiens, UniProt P22303)
Description: Inhibition of human acetylcholinesterase using acetylthiocholine iodide as substrate incubated for 15 mins by Ellman's method

[2] = Apparent permeability of compound across gastrointestinal tract mimic in PBS buffer as membrane retention incubated for 5 hrs by PAMPA assay based HPLC analysis; type: ADME
[3] = Apparent permeability of compound across gastrointestinal tract mimic in PBS buffer incubated for 5 hrs by PAMPA assay based HPLC analysis; type: ADME

Sequence of Acetylcholinesterase (P22303 whole entry): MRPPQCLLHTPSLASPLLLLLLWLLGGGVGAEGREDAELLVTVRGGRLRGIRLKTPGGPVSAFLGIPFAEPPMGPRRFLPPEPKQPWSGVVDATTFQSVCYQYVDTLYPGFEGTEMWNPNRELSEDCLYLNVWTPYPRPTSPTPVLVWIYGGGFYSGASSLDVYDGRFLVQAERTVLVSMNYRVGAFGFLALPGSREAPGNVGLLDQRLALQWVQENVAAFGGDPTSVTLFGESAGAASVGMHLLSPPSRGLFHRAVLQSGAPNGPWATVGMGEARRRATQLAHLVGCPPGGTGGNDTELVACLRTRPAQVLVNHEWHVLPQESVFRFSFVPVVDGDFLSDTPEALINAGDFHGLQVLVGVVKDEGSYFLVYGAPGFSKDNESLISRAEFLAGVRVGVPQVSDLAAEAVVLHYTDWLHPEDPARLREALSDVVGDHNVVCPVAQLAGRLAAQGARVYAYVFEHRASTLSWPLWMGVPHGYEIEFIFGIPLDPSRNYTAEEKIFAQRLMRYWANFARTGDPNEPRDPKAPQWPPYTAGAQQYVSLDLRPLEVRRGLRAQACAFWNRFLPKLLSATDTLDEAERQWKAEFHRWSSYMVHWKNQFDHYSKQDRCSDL

Compound	pIC50 [1]	Activity [2] [%]	Papp at 5 h [3] [×10⁻⁶ cm/s]
CC(=O)N1N=C(c2ccc(Br)cc2)CC1c1ccc(-c2ccccc2)cc1 (centres undefined)	6.04	49	4.9
CC(=O)N1N=C(c2ccc(-c3ccccc3)cc2)CC1c1ccc2ccccc2c1 (centres undefined)	6.10	59.7	3.36
COc1ccc(OC)c(C2CC(c3ccc(-c4ccccc4)cc3)=NN2C(C)=O)c1 (centres undefined)	2.85	38.3	6.94
CC(=O)N1N=C(c2ccc(-c3ccccc3)cc2)CC1c1ccc([N+](=O)[O-])cc1 (centres undefined)	2.81	32.6	7.85
CC(=O)N1N=C(c2ccc(C)cc2)CC1c1ccc(-c2ccccc2)cc1 (centres undefined)	6.07	44.3	4.27
COc1cc(C2=NN(C(C)=O)C(c3ccc(-c4ccccc4)cc3)C2)cc(OC)c1OC (centres undefined)	2.71	9.5	7.89
CC(=O)N1N=C(c2ccc(-c3ccccc3)cc2)CC1c1ccc(C(=O)O)cc1 (centres undefined)	2.81	15	2.13
CC(=O)N1N=C(c2ccccc2[N+](=O)[O-])CC1c1ccc(-c2ccccc2)cc1 (centres undefined)	7.28	6.6	1.22
CC(=O)N1N=C(c2ccc3c(c2)OCO3)CC1c1ccc(-c2ccccc2)cc1 (centres undefined)	6.04	17	8.44
COc1ccc(C2CC(c3ccc(-c4ccccc4)cc3)=NN2C(C)=O)cc1OC (centres undefined)	2.85	9.2	9.02
CC(=O)N1N=C(c2ccc(-c3ccccc3)cc2)CC1c1ccccc1 (centres undefined)	2.88	30.7	9.15
CC(=O)N1N=C(c2ccc3ccccc3c2)CC1c1ccc(-c2ccccc2)cc1 (centres undefined)	7.17	56.9	4.43
CC(=O)N1N=C(c2ccc(-c3ccccc3)cc2)CC1c1cccc([N+](=O)[O-])c1 (centres undefined)	2.99	27.7	9.42
CC(=O)N1N=C(c2ccc(-c3ccccc3)cc2)CC1c1ccc2c(c1)OCO2 (centres undefined)	6.01	33.7	8.75
COc1ccc(C2=NN(C(C)=O)C(c3ccc(-c4ccccc4)cc3)C2)c(OC)c1 (centres undefined)	2.95	18.4	1
COc1ccc(OC)c(C2=NN(C(C)=O)C(c3ccc(-c4ccccc4)cc3)C2)c1 (centres undefined)	2.77	36.2	6.87
CC(=O)N1N=C(c2cccc3ccccc23)CC1c1ccc(-c2ccccc2)cc1 (centres undefined)	2.99	35.8	5.47
CC(=O)N1N=C(c2ccc(-c3ccccc3)cc2)CC1c1ccccc1[N+](=O)[O-] (centres undefined)	6.19	47.6	6.9
